According to patent publication US9000182B2, “2H-imidazol-4-amine compounds and their use as BACE inhibitors” (AstraZeneca AB, priority 2012, dated 2015):

Tests used:
[1] = system: sAPPβ release in SH-SY5Y cells; assay: sAPPβ release assay; assay type: cell-based; settings: 17 h incubation
Protocol: SH-SY5Y cells were cultured in DMEM/F-12 with Glutamax, 10% FCS and 1% non-essential amino acids and cryopreserved and stored at −140° C. at a concentration of 7.5-9.5×10^6 cells per vial. Thaw cells and seed at a conc. of around 10000 cells/well in DMEM/F-12 with Glutamax, 10% FCS and 1% non-essential amino acids to a 384-well tissue culture treated plate, […] cell susp/well. The cell plates were then incubated for 7-24 h at 37° C., 5% CO2. The cell medium was removed, followed by addition of 30 μL compound diluted in DMEM/F-12 with Glutamax, 10% FCS, 1% non-essential amino acids and 1% PeSt to a final conc. of 1% DMSO. The compounds were incubated with the cells for 17 h (overnight) at 37° C., 5% CO2. Meso Scale Discovery (MSD) plates were used for the detection of sAPPβ release. MSD sAPPβ plates were blocked in 1% BSA in Tris wash buffer (40 μL/well) for 1 h on shake at r.t. and washed 1 time in Tris wash buffer (40 μL/well). 20 μL of medium was transferred to the pre-blocked and washed MSD sAPPβ microplates, and the cell plates were further used in an ATP assay to measure cytotoxicity. The MSD plates were incubated with shaking at r.t. for 2 h and the media discarded. 10 μL detection antibody was added (1 nM) per well followed by incubation with shaking at r.t. for 2 h and then discarded. 40 μL Read Buffer was added per well and the plates were read in a SECTOR Imager.

[2] = target: T1, human β-Secretase (sBACE-Fc, soluble part AA 1-AA 460) (Homo sapiens (Human), UniProt P56817); assay: TR-FRET assay; assay type: biochemical; settings: standard TR-FRET assay (values without footnote a)
Protocol: The β-secretase enzyme used in the TR-FRET is prepared as follows:
(§1) The enzyme (truncated form) was diluted to 6 μg/mL (stock 1.3 mg/mL) and the TruPoint BACE1 Substrate to 200 nM (stock 120 μM) in reaction buffer (NaAcetate, chaps, triton x-100, EDTA pH4.5). Enzyme and compound in dimethylsulphoxide (final DMSO concentration 5%) was mixed and pre-incubated for 10 minutes at RT. Substrate was then added and the reaction was incubated for 15 minutes at RT. The reaction was stopped with the addition of 0.35 vol Stop solution (NaAcetate, pH 9). The fluorescence of the product was measured on a Victor II plate reader with excitation wavelengths of 340-485 nm and emission wavelengths of 590-615 nm. […] The dimethylsulphoxide control, instead of test compound, defined the 100% activity level and 0% activity was defined by wells lacking enzyme (replaced with reaction buffer) or by a saturating dose of a known inhibitor, 2-amino-6-[3-(3-methoxyphenyl)phenyl]-3,6-dimethyl-5H-pyrimidin-4-one.

[3] = target: T1, human β-Secretase (sBACE-Fc, soluble part AA 1-AA 460); assay: Diluted TR-FRET assay; assay type: biochemical
Protocol: as §1, with “The enzyme (truncated form) was diluted to 6 μg/mL (stock 1.3 mg/mL) and the TruPoint BACE1 Substrate to 200 nM (stock 120 μM) in reaction buffer (NaAcetate, chaps, triton x-100, EDTA pH4.5).” left out, “Substrate was then added and the reaction was incubated for 15 minutes at RT.” left out

[4] = IC50 from the diluted FRET assay (footnote a): 50 times less enzyme, 6.5 h reaction time

T1 sequence (P56817 22-460): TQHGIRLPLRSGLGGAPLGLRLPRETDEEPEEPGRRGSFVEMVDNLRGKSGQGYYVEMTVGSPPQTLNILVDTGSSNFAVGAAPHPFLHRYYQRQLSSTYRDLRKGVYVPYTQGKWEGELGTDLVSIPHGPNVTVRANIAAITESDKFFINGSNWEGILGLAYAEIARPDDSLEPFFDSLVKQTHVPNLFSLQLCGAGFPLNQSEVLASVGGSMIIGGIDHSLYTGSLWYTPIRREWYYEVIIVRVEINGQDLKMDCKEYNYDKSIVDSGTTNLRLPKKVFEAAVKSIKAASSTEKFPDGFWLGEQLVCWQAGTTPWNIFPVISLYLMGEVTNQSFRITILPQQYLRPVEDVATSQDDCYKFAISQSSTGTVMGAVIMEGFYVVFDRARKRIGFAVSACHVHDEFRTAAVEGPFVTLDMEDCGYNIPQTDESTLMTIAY

IC50 [1] | IC50 [2] | IC50 ([1]; Homo sapiens) | Compound | also measured
 |  | 2.4 nM | CO[C@H]1CC[C@]2(CC1)Cc1ccc(OCC(C)(F)F)cc1C21N=C(C)C(N)=N1 (stereo partly drawn) [Example 3, (1r,4r)-6′-(2,2-Difluoropropoxy)-4-methoxy-5″-methyl-3′H-dispiro[cyclohexane-1,2′-indene-1′,2″-imidazol]-4″-amine] | IC50 [3]: 6.7 nM
 | 1300 nM |  | CO[C@H]1CC[C@]2(CC1)Cc1ccc(O)cc1[C@@]21N=C(C)C(N)=N1 [Example 19, (1r,1′R,4R)-4″-Amino-4-methoxy-5″-methyl-3′H-dispiro[cyclohexane-1,2′-indene-1′,2″-imidazol]-6′-ol] | 
 |  | 2.1 nM | CO[C@H]1CC[C@]2(CC1)Cc1ccc(C#CC3CCC3)cc1C21N=C(C)C(N)=N1 (mixture of isomers) [Example 6, (1r,4r)-6′-(Cyclobutylethynyl)-4-methoxy-5″-methyl-3′H-dispiro[cyclohexane-1,2′-indene-1′,2″-imidazol]-4″-amine] | 
 | 3700 nM |  | CC1=NC2(N=C1N)c1cc(Br)ccc1C[C@]21CC[C@@H](OC(C)C)CC1 (stereo partly drawn) [Example 16, (1r,4r)-6′-Bromo-5″-methyl-4-(propan-2-yloxy)-3′H-dispiro[cyclohexane-1,2′-indene-1′,2″-imidazol]-4″-amine] | 
 |  | 2.5 nM | CO[C@H]1CC[C@]2(CC1)Cc1ccc(OCC(C)F)cc1C21N=C(C)C(N)=N1 (stereo partly drawn) [Example 14, (1r,4r)-6′-(2-Fluoropropoxy)-4-methoxy-5″-methyl-3′H-dispiro[cyclohexane-1,2′-indene-1′,2″-imidazol]-4″-amine] | IC50 [3]: 6.7 nM
 |  | 1.6 nM | CO[C@H]1CC[C@]2(CC1)Cc1ccc(C#CC(C)C)cc1C21N=C(C)C(N)=N1 (mixture of isomers) [Example 8, (1r,4r)-4-Methoxy-5″-methyl-6′-(3-methylbut-1-yn-1-yl)-3′H-dispiro[cyclohexane-1,2′-indene-1′,2″-imidazol]-4″-amine] | 
 |  | 16 nM | CC[C@@H](C)Oc1ccc2c(c1)C1(N=C(C)C(N)=N1)[C@]1(CC[C@H](OC)CC1)C2 (stereo partly drawn) [Example 18, (1r,4r)-6′-[(28)-Butan-2-yloxy]-4-methoxy-5″-methyl-3′H-dispiro[cyclohexane-1,2′-indene-1′,2″-imidazol]-4″-amine] | 
 | 250 nM |  | CC1=NC2(N=C1N)c1cc(OCCCF)ccc1C[C@]21CC[C@@H](OC(C)C)CC1 (stereo partly drawn) [Example 17, (1r,4r)-6′-(3-Fluoropropoxy)-5″-methyl-4-(propan-2-yloxy)-3′H-dispiro[cyclohexane-1,2′-indene-1′,2″-imidazol]-4″-amine] | 
 |  | 0.6 nM | CO[C@H]1CC[C@]2(CC1)Cc1ccc(OCCC(F)(F)F)cc1C21N=C(C)C(N)=N1 (stereo partly drawn) [Example 10, (1r,4r)-4-Methoxy-5″-methyl-6′-(3,3,3-trifluoropropoxy)-3′H-dispiro[cyclohexane-1,2′-indene-1′,2″-imidazol]-4″-amine] | 

Further lines, the molecule ahead of its results:

Compound | IC50 [1] | IC50 [2] | IC50 ([1]; Homo sapiens) | also measured
CC1=N[C@@]2(N=C1N)c1cc(Br)ccc1C[C@]21CC[C@@H](O)CC1 (single isomer, unassigned; isomer 1) [5, isomer 1] | 96 nM | 270 nM |  | 
CC1=N[C@]2(N=C1N)c1cc(-c3cc(Cl)cc(C#N)c3)ccc1C[C@]21CC[C@@H](O)CC1 (single isomer, unassigned; isomer 1) [15, isomer 1] | 1.6 nM |  |  | IC50 [3, 4]: 3.2 nM
CO[C@H]1CC[C@]2(CC1)Cc1ccc(C#CC(C)C)cc1[C@]21N=C(C)C(N)=N1 (single isomer, unassigned; isomer 1) [9, isomer 1] | 0.7 nM |  |  | 
CC1=N[C@@]2(N=C1N)c1cc(OCC(C)C)ccc1C[C@]21CC[C@@H](O)CC1 (single isomer, unassigned; isomer 1) [2, isomer 1] |  | 13 nM |  | 
CC1=N[C@@]2(N=C1N)c1cc(OCCCF)ccc1C[C@]21CC[C@@H](OC(F)F)CC1 (single isomer, unassigned; isomer 2) [13, isomer 2] |  | 2900 nM |  | 
CO[C@H]1CC[C@]2(CC1)Cc1ccc(C#CC3CCC3)cc1[C@]21N=C(C)C(N)=N1 (single isomer, unassigned; isomer 1) [7, isomer 1] | 2 nM |  |  | 
CC1=N[C@@]2(N=C1N)c1cc(-c3cc(Cl)cc(C#N)c3)ccc1C[C@]21CC[C@@H](O)CC1 (single isomer, unassigned; isomer 2) [15, isomer 2] | 216 nM | 780 nM |  | 
CC1=N[C@]2(N=C1N)c1cc(OCCCF)ccc1C[C@]21CC[C@@H](OC(F)F)CC1 (single isomer, unassigned; isomer 1) [13, isomer 1] | 1.6 nM |  |  | IC50 [3, 4]: 3 nM
CO[C@H]1CC[C@]2(CC1)Cc1ccc(OCCC(F)(F)F)cc1[C@@]21N=C(C)C(N)=N1 (single isomer, unassigned; isomer 1) [11, isomer 1] | 0.7 nM |  |  | 
